One data set has as its target T1, human TrkA (Homo sapiens, UniProt P04629).
T1 construct: purchased Lifetechnologies PV3144
As to the kind of experiment: Human TrkA inhibition assay. The data set is classed as biochemical. To be noted: human TrkA phosphorylation inhibition, ATP 500 μmol/L. An outline of the steps: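 Human TrkA (1 nmol/L final) preincubated 15 min with compound, then FL-peptide 27 (1.5 μmol/L) and ATP (500 μmol/L) added; 120 min at 37 °C in HEPES/MgCl2/DTT buffer. Mobility-shift measurement of phosphorylated vs non-phosphorylated substrate; IC50 by logistic regression over 3-fold dilution series.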

In the next data set the target is T2, hERG channel (IKr) (Homo sapiens, UniProt Q12809).
T2 construct: expressed in transfected cells; host or cells: CHO cells
T2 sequence (Q12809 whole entry): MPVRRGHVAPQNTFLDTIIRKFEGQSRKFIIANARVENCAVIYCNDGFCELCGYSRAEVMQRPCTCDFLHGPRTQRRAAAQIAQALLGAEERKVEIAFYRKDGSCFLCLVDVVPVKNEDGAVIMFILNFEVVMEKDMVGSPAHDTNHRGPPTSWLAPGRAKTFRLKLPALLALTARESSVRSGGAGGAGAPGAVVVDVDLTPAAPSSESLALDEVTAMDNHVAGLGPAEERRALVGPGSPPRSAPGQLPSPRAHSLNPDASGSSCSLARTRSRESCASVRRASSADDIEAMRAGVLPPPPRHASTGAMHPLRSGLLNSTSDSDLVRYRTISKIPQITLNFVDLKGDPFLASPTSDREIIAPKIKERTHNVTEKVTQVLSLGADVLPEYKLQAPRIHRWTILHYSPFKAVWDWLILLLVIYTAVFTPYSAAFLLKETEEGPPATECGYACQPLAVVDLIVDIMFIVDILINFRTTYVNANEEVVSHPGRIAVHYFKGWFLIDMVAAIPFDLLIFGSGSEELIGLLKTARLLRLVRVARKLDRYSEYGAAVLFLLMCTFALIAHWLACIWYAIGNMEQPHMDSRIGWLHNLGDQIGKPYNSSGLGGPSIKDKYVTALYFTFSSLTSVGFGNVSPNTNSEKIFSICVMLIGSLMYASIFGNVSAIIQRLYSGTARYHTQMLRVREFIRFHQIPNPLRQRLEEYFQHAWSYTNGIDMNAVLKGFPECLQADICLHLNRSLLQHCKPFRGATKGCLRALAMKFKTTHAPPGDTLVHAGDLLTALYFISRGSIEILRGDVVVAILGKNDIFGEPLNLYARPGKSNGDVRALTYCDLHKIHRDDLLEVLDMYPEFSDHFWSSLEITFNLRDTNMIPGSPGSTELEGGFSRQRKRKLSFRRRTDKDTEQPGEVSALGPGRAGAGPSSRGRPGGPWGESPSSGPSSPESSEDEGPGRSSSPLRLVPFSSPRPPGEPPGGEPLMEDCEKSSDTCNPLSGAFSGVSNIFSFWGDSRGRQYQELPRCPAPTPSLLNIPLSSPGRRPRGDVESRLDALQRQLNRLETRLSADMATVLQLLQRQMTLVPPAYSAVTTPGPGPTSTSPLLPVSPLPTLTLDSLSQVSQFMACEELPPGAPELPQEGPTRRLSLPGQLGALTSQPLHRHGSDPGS
As to the kind of experiment: hERG test (whole cell patch clamp, IKr). The settings on record: CHO cells expressing hERG channel, read-out: % inhibition of tail peak current (IKr); for inhibition at 5 μmol/L: pH 7.4, 5 μmol/L of test compound; for inhibition at 10 μmol/L: pH 7.4, 10 μmol/L of test compound. The data set is classed as cell-based. From the text: For the purpose of assessing risk of an electrocardiogram QT interval prolongation of the compound of the present invention, effects of the compound of the present invention on delayed rectifier K+ current (IKr), which plays an important role in the ventricular repolarization process, was studied using CHO cells expressing human ether-a-go-go related gene (hERG) channel.
After a cell was retained at a membrane potential of −80 mV by whole cell patch clamp method using an automated patch clamp system (QPatch; Sophion Bioscience A/S) and gave a leak potential of −50 mV, IKr induced by depolarization pulse stimulation at +20 mV for 2 seconds, and further, repolarization pulse stimulation at −50 mV for 2 seconds, was recorded. A vehicle, which is the 0.1-0.3% dimethyle sulfoxide solution in extracellular solution (NaCl: 145 mmol/L, KCl: 4 mmol/L, CaCl2: 2 mmol/L, MgCl2: 1 mmol/L, glucose: 10 mmol/L, HEPES (4-(2-hydroxyethyl)-1-piperazineethanesulfonic acid): 10 mmol/L, pH7.4), or the compound of the present invention had been dissolved at an objective concentration in the extracellular solution is applied to the cell at room temperature for 7 minutes or more. From the recording IKr, an absolute value of the tail peak current was measured based on the current value at the resting membrane potential using analysis software (QPatch assay software; Sophion Bioscience A/S). Further, the % inhibition of tail peak current for the compound of the present invention relative to the tail peak current after application of the vehicle is calculated to assess influence of the compound of the present invention on IKr.
On the technique in general: Block of hERG is tested as a sign of cardiac risk.

Read-outs that look alike come from different tables or passages of the source.

T1 sequence (P04629 33-796): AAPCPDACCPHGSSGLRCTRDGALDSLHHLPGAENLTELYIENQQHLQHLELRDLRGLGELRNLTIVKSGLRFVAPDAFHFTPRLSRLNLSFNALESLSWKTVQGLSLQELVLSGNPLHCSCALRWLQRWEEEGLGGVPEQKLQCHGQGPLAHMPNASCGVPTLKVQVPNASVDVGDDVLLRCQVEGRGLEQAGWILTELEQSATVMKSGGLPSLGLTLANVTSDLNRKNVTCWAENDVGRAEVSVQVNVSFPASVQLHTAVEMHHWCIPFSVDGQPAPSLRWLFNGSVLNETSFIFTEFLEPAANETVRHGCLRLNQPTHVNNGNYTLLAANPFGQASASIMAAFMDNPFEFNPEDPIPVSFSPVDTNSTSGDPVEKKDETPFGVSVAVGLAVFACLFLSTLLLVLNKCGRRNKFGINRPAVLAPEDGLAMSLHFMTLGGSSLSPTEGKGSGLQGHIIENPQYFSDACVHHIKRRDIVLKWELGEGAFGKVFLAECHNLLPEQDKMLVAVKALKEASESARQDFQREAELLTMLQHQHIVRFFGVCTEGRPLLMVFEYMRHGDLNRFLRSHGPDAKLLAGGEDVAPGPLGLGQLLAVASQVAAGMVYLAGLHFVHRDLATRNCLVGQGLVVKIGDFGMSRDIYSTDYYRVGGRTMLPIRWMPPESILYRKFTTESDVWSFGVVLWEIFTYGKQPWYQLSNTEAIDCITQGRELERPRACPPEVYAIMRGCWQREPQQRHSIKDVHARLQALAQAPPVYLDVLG

The term inhibition denotes the share of the control response that was lost under treatment. `CCN1CCC(NC(=O)c2cc(-c3nn(-c4ccccc4)c(NC(=O)N[C@@H]4C[C@@H](CCOC)N(C)[C@H]4c4ccc(F)c(F)c4)c3C)ccn2)CC1` [Compound I-66]: at human TrkA (read-out: IC50_nM), the IC50 is under 100 nM. Moreover, the inhibition at 5 μmol/L on hERG channel (IKr) is 22.6%.
Take `CCOc1ncc(-c2nn(-c3ccccc3)c(NC(=O)N[C@@H]3C[C@@H](CCOC)N(C)[C@H]3c3ccc(F)c(F)c3)c2C)cn1` [Compound I-174]: the IC50 at human TrkA (read-out: IC50_nM) was under 100 nM. The inhibition at 10 μmol/L at hERG channel (IKr) is 33.6%.
Turning to `CCOc1ncc(-c2nn(-c3ccccc3)c(NC(=O)N[C@@H]3C[C@@H](CCOC)N(C)[C@H]3c3ccnc(F)c3)c2C)cn1` [Compound I-93], the IC50 on human TrkA (read-out: IC50_nM) was under 100 nM. In addition, the inhibition at 5 μmol/L at hERG channel (IKr) is 11.6%.
Regarding `CCOc1ncc(-c2nn(-c3ccccc3)c(NC(=O)N[C@@H]3C[C@@H](CCOC)C[C@H]3c3ccc(F)c(F)c3)c2C)cn1` [Compound I-169], the IC50 at human TrkA (read-out: IC50_nM) was under 100 nM. Further, the inhibition at 10 μmol/L on hERG channel (IKr) is 21%.
With `CCN1CCC(NC(=O)c2cc(-c3nn(-c4ccccc4)c(NC(=O)N[C@@H]4C[C@@H](CCOC)C[C@H]4c4ccccc4)c3C)ccn2)CC1` [Compound I-67], the IC50 at human TrkA (read-out: IC50_nM) is under 100 nM. Besides, at hERG channel (IKr), the inhibition at 5 μmol/L was found to be 16.3%.
As for `CNC(=O)c1cc(-c2nn(-c3ccccc3)c(NC(=O)N[C@@H]3CN(CCOC)C[C@H]3c3ccccc3)c2C)cnc1OC` (racemic) [Compound I-53], the IC50 on human TrkA (read-out: IC50_nM) is under 100 nM.
For the compound `COCCN1C[C@@H](NC(=O)Nc2c(C)c(-c3cc(C(=O)N[C@H]4CCOC4)c(=O)n(C)c3)nn2-c2ccccc2)[C@H](c2ccccc2)C1` (racemic) [Compound I-111], the IC50 at human TrkA (read-out: IC50_nM) was under 100 nM.
In the case of `CNC(=O)c1ccc(-c2nn(-c3ccccc3)c(NC(=O)N[C@@H]3CN(CCOC)C[C@H]3c3ccccc3)c2C)cn1` (racemic) [Compound I-35], on human TrkA (read-out: IC50_nM), the IC50 was under 100 nM.
Turning to `COCCN1C[C@@H](NC(=O)Nc2c(C)c(-c3cnc(C)nc3)nn2-c2ccccc2)[C@H](c2cnc(F)c(F)c2)C1` (racemic) [Compound I-60], at human TrkA (read-out: IC50_nM), the IC50 was under 100 nM.
Regarding `COCCN1C[C@@H](NC(=O)Nc2c(C)c(-c3ccc4c(cnn4C)c3)nn2-c2ccccc2)[C@H](c2ccccc2)C1` (racemic) [Compound I-3], the IC50 at human TrkA (read-out: IC50_nM) was under 100 nM.
For `COCCN1C[C@@H](NC(=O)Nc2c(C)c(-c3cnc4c(c3)oc(=O)n4C)nn2-c2ccccc2)[C@H](c2ccccc2)C1` (racemic) [Compound I-76], the IC50 on human TrkA (read-out: IC50 value) was 3.1 nM.
With `COCCN1C[C@@H](NC(=O)Nc2c(C)c(-c3ccnc(C(=O)N[C@H]4CCOC4)c3)nn2-c2ccccc2)[C@H](c2ccccc2)C1` [Compound I-87], the IC50 on human TrkA (read-out: IC50_nM) was under 100 nM.
For the compound `COCCN1C[C@@H](NC(=O)Nc2c(C)c(-c3cnc(OC)c(C(=O)N[C@@H]4CCOC4)c3)nn2-c2ccccc2)[C@H](c2ccccc2)C1` [Compound I-84], the IC50 on human TrkA (read-out: IC50_nM) is under 100 nM.
The same measure, in the same setting: then `COCCN1C[C@@H](NC(=O)Nc2c(C)c(-c3cnc4cnn(C)c4c3)nn2-c2ccccc2)[C@H](c2ccccc2)C1` (racemic) [Compound I-28], with under 100 nM; and `COCCN1C[C@@H](NC(=O)Nc2c(C)c(-c3cnn(C)c3)nn2-c2ccccc2)[C@H](c2ccnc(Cl)c2)C1` (racemic) [Compound I-1], with under 100 nM.
The same measure, in the same setting: then `COCCN1C[C@@H](NC(=O)Nc2c(C)c(-c3cnc(OC)c(C(=O)NS(C)(=O)=O)c3)nn2-c2ccccc2)[C@H](c2ccccc2)C1` (racemic) [Compound I-147], with under 100 nM; and `CNC(=O)c1cc(-c2nn(-c3ccccc3)c(NC(=O)N[C@@H]3C[C@@H](CCOC)C[C@H]3c3ccccc3)c2C)cnc1OC` [Compound I-144], with under 100 nM.
`COCCOc1ncc(-c2nn(-c3ccccc3)c(NC(=O)N[C@@H]3CN(CCOC)C[C@H]3c3ccccc3)c2C)cc1C(=O)NC1CCOCC1` (racemic) [Compound I-141]: the IC50 on human TrkA (read-out: IC50_nM) is under 100 nM.
With `COCCN1C[C@@H](NC(=O)Nc2c(C)c(-c3cc(C(=O)NC4CC(F)(F)C4)c(=O)n(C)c3)nn2-c2ccccc2)[C@H](c2ccccc2)C1` (racemic) [Compound I-113], the IC50 at human TrkA (read-out: IC50_nM) is under 100 nM.
Regarding `CNC(=O)c1cc(-c2nn(-c3ccccc3)c(NC(=O)N[C@@H]3CN(CCOC)C[C@H]3c3ccccc3)c2C)ccn1` (racemic) [Compound I-45], at human TrkA (read-out: IC50_nM), the IC50 is under 100 nM.
On the same count and under the same terms, then `COCCN1C[C@@H](NC(=O)Nc2c(C)c(-c3ccnc(C(=O)NC4COC4)c3)nn2-c2ccccc2)[C@H](c2ccccc2)C1` (racemic) [Compound I-69], with under 100 nM.
As for `COCCN1C[C@@H](NC(=O)Nc2c(C)c(-c3cc(C(=O)NC4CCOCC4)c(=O)n(CCOC)c3)nn2-c2ccccc2)[C@H](c2ccccc2)C1` (racemic) [Compound I-136], the IC50 on human TrkA (read-out: IC50_nM) was under 100 nM.
With `CNC(=O)c1cc(-c2nn(-c3ccccc3)c(NC(=O)N[C@@H]3CN(CCOC)C[C@H]3c3ccccc3)c2C)cnc1OCC(F)F` (racemic) [Compound I-125], at human TrkA (read-out: IC50_nM), the IC50 is under 100 nM.
Still for that read-out and setting: the result for `Cc1c(-c2cnn(C)c2)nn(-c2ccccc2)c1NC(=O)N[C@@H]1CN(CCOC(F)(F)F)C[C@H]1c1ccnc(F)c1` (racemic) [Compound I-20] reads under 100 nM.
For `COCCN1C[C@@H](NC(=O)Nc2c(C)c(-c3ccc4c(cnn4C)c3)nn2-c2ccccc2)[C@H](c2cnc(F)c(F)c2)C1` (racemic) [Compound I-26], the IC50 at human TrkA (read-out: IC50_nM) was under 100 nM.
The same measure, in the same setting: then `COCCN1C[C@@H](NC(=O)Nc2c(C)c(-c3cnc4nc(C)oc4c3)nn2-c2ccccc2)[C@H](c2ccccc2)C1` (racemic) [Compound I-34], with under 100 nM; and `COCC[C@@H]1C[C@@H](NC(=O)Nc2c(C)c(-c3cc(C(=O)NOCc4ccccc4)c(=O)n(C)c3)nn2-c2ccccc2)[C@H](c2ccccc2)C1` [Compound I-119], with under 100 nM.
Still for that read-out and setting: the result for `COCCN1C[C@@H](NC(=O)Nc2c(C)c(-c3cnc4[nH]c(=O)oc4c3)nn2-c2ccccc2)[C@H](c2ccccc2)C1` (racemic) [Compound I-107] reads under 100 nM; that for `CCNC(=O)c1cc(-c2nn(-c3ccccc3)c(NC(=O)N[C@@H]3CN(CCOC)C[C@H]3c3ccccc3)c2C)cnc1OCCOC` (racemic) [Compound I-130], under 100 nM.
For `CCOc1ncc(-c2nn(-c3ccccc3)c(NC(=O)N[C@@H]3CN(CCOC)C[C@H]3c3ccccc3)c2C)cc1C(=O)NC` (racemic) [Compound I-122], at human TrkA (read-out: IC50_nM), the IC50 was under 100 nM.
`COCCN1C[C@@H](NC(=O)Nc2c(C)c(-c3ccnc(C(=O)NC4CCCCC4)c3)nn2-c2ccccc2)[C@H](c2ccccc2)C1` (racemic) [Compound I-71]: the IC50 on human TrkA (read-out: IC50_nM) is under 100 nM.
For `COCCN1C[C@@H](NC(=O)Nc2c(C)c(-c3cnc(OC)c(C(=O)N[C@@H]4CCCOC4)c3)nn2-c2ccccc2)[C@H](c2ccccc2)C1` [Compound I-78], the IC50 on human TrkA (read-out: IC50_nM) is under 100 nM.
For the compound `COCCN1C[C@@H](NC(=O)Nc2c(C)c(-c3cnc(OC)c(C(=O)NC4CCCCC4)c3)nn2-c2ccccc2)[C@H](c2ccccc2)C1` (racemic) [Compound I-77], at human TrkA (read-out: IC50_nM), the IC50 is under 100 nM.
`COCC[C@@H]1C[C@@H](NC(=O)Nc2c(C)c(-c3ccc(OC)nc3)nn2-c2ccccc2)[C@H](c2ccnc(F)c2)N1C` [Compound I-175]: the IC50 at human TrkA (read-out: IC50_nM) was under 100 nM.
The same measure, in the same setting: then `COCCN1C[C@H](NC(=O)Nc2c(C)c(-c3cnc4c(cnn4C)c3)nn2-c2ccccc2)[C@@H](c2ccnc(F)c2)C1` [Compound I-160], with over 1000 nM; and `COCCN1C[C@@H](NC(=O)Nc2c(C)c(-c3cnc4c(c3)c(OC)nn4C)nn2-c2ccccc2)[C@H](c2ccccc2)C1` (racemic) [Compound I-95], with under 100 nM; and `COCCN1C[C@@H](NC(=O)Nc2c(C)c(-c3cnc(OC)c(C(=O)NO)c3)nn2-c2ccccc2)[C@H](c2ccccc2)C1` (racemic) [Compound I-138], with under 100 nM.
On the same count and under the same terms, then `COCCN1C[C@@H](NC(=O)Nc2c(C)c(-c3cc(C(=O)N[C@@H]4CCCOC4)c(=O)n(C)c3)nn2-c2ccccc2)[C@H](c2ccccc2)C1` (racemic) [Compound I-109], with under 100 nM; and `COCCN1C[C@@H](NC(=O)Nc2c(C)c(-c3ccnc(C(=O)NO)c3)nn2-c2ccccc2)[C@H](c2ccc(F)c(F)c2)C1` [Compound I-155], with under 100 nM; and `COCC[C@@H]1C[C@@H](NC(=O)Nc2c(C)c(-c3cc(C)c(=O)n(C)c3)nn2-c2ccccc2)[C@H](c2ccccc2)C1` [Compound I-103], with under 100 nM.
In the case of `COCCN1C[C@@H](NC(=O)Nc2c(C)c(-c3cnc4c(c3)nnn4C)nn2-c2ccccc2)[C@H](c2ccccc2)C1` (racemic) [Compound I-37], the IC50 on human TrkA (read-out: IC50_nM) was under 100 nM.
Same read-out and setting: the result for `COCC[C@@H]1C[C@@H](NC(=O)Nc2c(C)c(-c3cnc4c(cnn4C)c3)nn2-c2ccccc2)[C@H](c2ccnc(F)c2)N1C` [Compound I-94] reads under 100 nM.

The values above are taken from patent US10533006B2, “Nitrogen-containing heterocycle and carbocycle derivatives having TrkA inhibitory activity” (Shionogi & Co., Ltd., priority 2016, dated 2020).
